This note sets out measurements from paper PMC6273344, “Biochemical Characteristics of Three Laccase Isoforms from the Basidiomycete Pleurotus nebrodensis” (Molecules, 2015).

Test systems include Lac3; Lac1; Lac2.
Common to all, as to details: McIlvaine buffer at optimum pH (3.0); ABTS 125-5000 uM; O2 as co-substrate

Counter-ions that a name gives are not always drawn.

For orientation: Km means the substrate concentration at which the rate is half of its maximum. As to `CCn1c(=NN=c2sc3cc(S(=O)(=O)O)ccc3n2CC)sc2cc(S(=O)(=O)O)ccc21` [ABTS, 2,2′-azino-bis(3-ethylbenzothiazoline-6-sulfonic acid) diammonium salt], the Km with Lac3 came out at 104 µM; in the assay with Lac1, 160 µM; with Lac2, 550 µM.
